pIC50: −log10 of the molar value.

One assay has as its target MGL (Rattus norvegicus (Rat), UniProt Q8R431). As to the kind of experiment: In vitro autoradiography (ARG) on frozen normal rat brain sections. It counts as binding. The note with it: sagittal rat brain section 20 um, 400 uCi/ml in 50 mM Tris-HCl pH 7.4, 30 min at room temperature. The protocol: In vitro ARG using the compound of Example 3 was performed on a frozen normal rat brain sections (sagittal cut, thickness at 20 um). After taken out from freezer for 15 min, the rat brain section was added 250 ul of buffer solution (50 mM Tris-HCl pH=7.4) which contains the compound of Example 3 with the concentration of 400 uCi/ml. The brain section was incubated with the incubation buffer at room temperature for 30 min, was then washed with blank fresh buffer solution for 5 min, repeated 3 times. The brain section was air-dried, exposed to a phosphor screen in a cassette in dark environment for 18 hours. The screen was then scanned then Typhoon™ FLA 7000 Image Analyzer (GE) to generate the autoradiography of the compound of Example 3 on rat brain section (FIG. 2). […] The distribution pattern matches IHC staining pattern described below.
The IHC staining was performed on a frozen normal rat brain section (sagittal cut, thickness at 10 um) which is adjacent to the brain section used in ARG described above. After taken out from freezer for 15 min, the rat brain section was added 4% paraformaldehyde and fixed for 20 min at room temperature. The section was then washed with fresh phosphate buffer solution (PBS, 0.01 M, pH=7.4) for 5 min, repeated 3 times, followed by treatment of hydrogen peroxide solution (3% in PBS) at room temperature for 20 min. […]

In assay [1] the target is human MGL from HeLa cells (Homo sapiens (Human), UniProt Q99685). The experiment in a line: MGL in vitro activity assay ([glycerol-1,3-3H]-oleyl glycerol cleavage). It counts as biochemical. The note with it: 300 nM [Glycerol-1,3-3H]-oleyl glycerol, one hour incubation, endogenous MGL from HeLa cells. As for the experimental part:
The assay used to measure the in vitro activity of MGL is adapted from the assay used for another serine hydrolase (FAAH) described in Wilson et al., 2003 (A high-throughput-compatible assay for determining the activity of fatty acid amide hydrolase. Wilson S J, Lovenberg T W, Barbier A J. Anal Biochem. 2003 Jul. 15; 318(2):270-5.). The assay consists of combining endogenously expressed MGL from HeLa cells with test compounds, adding [glycerol-1,3-^3H]-oleyl glycerol, incubating for one hour, and then measuring the amount of cleaved [1,3-^3H]-glycerol that passes through an activated carbon filter. The amount of cleaved, tritiated glycerol passing through the carbon filter is proportional to the activity of the MGL enzyme in a particular well/test condition.
Standard conditions for this assay combine 300 nM [Glycerol-1,3-^3H]-oleyl glycerol with human MGL from HeLa cells and test compounds for one hour, after which the reaction is filtered through activated carbon and tritium is measured in the flow through. The test compound concentration in screening mode is 10 uM, while the highest compound concentration in IC50 assays is determined empirically. MGL is the predominant hydrolase in HeLa cells/cell homogenates.

Chain of human MGL from HeLa cells (Q99685 whole entry): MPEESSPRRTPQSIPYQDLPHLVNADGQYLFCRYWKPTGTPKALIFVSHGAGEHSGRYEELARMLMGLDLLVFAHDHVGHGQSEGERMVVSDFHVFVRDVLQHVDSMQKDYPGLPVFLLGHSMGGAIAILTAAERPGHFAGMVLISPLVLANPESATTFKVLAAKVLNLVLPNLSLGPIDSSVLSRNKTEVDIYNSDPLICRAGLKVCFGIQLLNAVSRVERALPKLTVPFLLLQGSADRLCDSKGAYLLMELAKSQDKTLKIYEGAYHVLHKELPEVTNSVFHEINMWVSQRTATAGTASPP
Chain of MGL (Q8R431 whole entry): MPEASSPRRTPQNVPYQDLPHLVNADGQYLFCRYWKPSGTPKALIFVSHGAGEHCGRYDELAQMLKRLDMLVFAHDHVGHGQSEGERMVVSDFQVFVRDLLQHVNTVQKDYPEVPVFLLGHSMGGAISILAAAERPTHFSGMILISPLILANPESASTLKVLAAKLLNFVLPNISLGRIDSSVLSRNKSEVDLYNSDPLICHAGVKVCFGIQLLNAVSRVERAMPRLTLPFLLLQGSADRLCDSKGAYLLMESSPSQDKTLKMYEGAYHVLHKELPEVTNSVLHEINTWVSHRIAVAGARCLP

As to `C[C@H]1c2nn(C)c(-c3cc(F)cc(F)c3)c2CCN1C(=O)c1c([18F])cccc1Cl` [Example 3], the “ARG signals (regional distribution)” value on MGL was “high in hippocampus, cortex, cerebellum and thalamus regions and low in brainstem”. In turn, `C[C@H]1c2nn(C)c(-c3cc(F)cc(F)c3)c2CCN1C(=O)c1c(F)cccc1Cl` [Example 1, (S)-(2-Chloro-6-fluorophenyl)(3-(3,5-difluorophenyl)-2,7-dimethyl-2,4,5,7-tetrahydro-6H-pyrazolo[3,4-c]pyridin-6-yl)methanone] had a pIC50 in assay [1] of 11.64.

As usually defined, the pIC50 is the IC50 on a negative log10 scale, so that one unit is a factor of ten.
